Test results taken from ChEMBL document CHEMBL1142599, “Biocatalytic and antimetastatic studies of the marine cembranoids sarcophine and 2-epi-16-deoxysarcophine” (J Nat Prod, 2006).

organism: Mus musculus; experiment: Inhibition of mouse B16B15b cell migration after 16 hrs by wound-healing assay; format: functional

Compound | Activity
CC1=C2CC/C(C)=C/C[C@H](O)[C@]3(C)O[C@H]3CC/C(C)=C/[C@H]2OC1 | Dose-dependent effect
CC1=C2[C@@H](O)C/C(C)=C/CC[C@]3(C)O[C@H]3CC/C(C)=C/[C@H]2OC1 | Dose-dependent effect
CC1=C2CC/C(C)=C/CC[C@]3(C)O[C@H]3CC/C(C)=C/[C@@H]2OC1=O | Dose-dependent effect
CC1=C2CC/C(C)=C/C[C@H](O)[C@]3(C)O[C@H]3CC/C(C)=C/[C@@H]2OC1=O | Dose-dependent effect
CC1=C2CC/C(C)=C/[C@@H](O)C[C@]3(C)O[C@H]3CC/C(C)=C/[C@H]2OC1 | Dose-dependent effect
CC1=C2CC/C(C)=C/CC[C@]3(C)O[C@H]3CC/C(C)=C/[C@H]2OC1 | Dose-dependent effect
C/C1=C\[C@H]2OC[C@@]3(C)O[C@@]23CC/C(C)=C/CC[C@]2(C)O[C@H]2CC1 | Dose-dependent effect
